Test results: ChEMBL document CHEMBL1140254, “A novel [99mTc[triple bond]N]2+ complex of metronidazole xanthate as a potential agent for targeting hypoxia” (Bioorg Med Chem Lett, 2005)

Key:
[1] = Biodistribution of the labeled compound in mice bone 30 min after post-injection; assay type: ADME, organism-based, Bone element; conditions: mouse, in vivo, 0.5 h
[2] = Biodistribution of the labeled compound in mice stomach 60 min after post-injection; assay type: ADME, organism-based; conditions: mouse, in vivo, 1 h
[3] = Biodistribution of the labeled compound in mice int +GB 30 min after post-injection; assay type: ADME, organism-based; conditions: mouse, in vivo, 0.5 h
[4] = Biodistribution of the labeled compound in mice lungs 30 min after post-injection; assay type: ADME, organism-based, Lung; conditions: mouse, in vivo, 0.5 h
[5] = Biodistribution of the labeled compound in mice blood 180 min after post-injection; assay type: ADME, organism-based; conditions: mouse, in vivo, 3 h
[6] = Biodistribution of the labeled compound in mice spleen 30 min after post-injection; assay type: ADME, organism-based; conditions: mouse, in vivo, 0.5 h
[7] = Biodistribution of the labeled compound in mice kidney 30 min after post-injection; assay type: ADME, organism-based; conditions: mouse, in vivo, 0.5 h
[8] = Biodistribution of the labeled compound in mice heart 180 min after post-injection; assay type: ADME, organism-based; conditions: mouse, in vivo, 3 h
Mus musculus [9] = organism: Mus musculus; assay: Tumor/blood ratio of the label compound in mice 30 min after post injection; assay type: functional
[10] = Biodistribution of the labeled compound in mice tumor 30 min after post-injection at a dose of 1.42 g; assay type: ADME, organism-based; conditions: mouse, in vivo, 0.5 h
[11] = Biodistribution of the labeled compound in mice kidney 60 min after post-injection; assay type: ADME, organism-based; conditions: mouse, in vivo, 1 h
Mus musculus [12] = organism: Mus musculus; assay: Tumor/muscle ratio of the label compound in mice 30 min after post injection; assay type: functional, Muscle tissue
[13] = Biodistribution of the labeled compound in mice liver 180 min after post-injection; assay type: ADME, organism-based; conditions: mouse, in vivo, 3 h
[14] = Biodistribution of the labeled compound in mice spleen 60 min after post-injection; assay type: ADME, organism-based; conditions: mouse, in vivo, 1 h
[15] = Biodistribution of the labeled compound in mice muscle 180 min after post-injection; assay type: ADME, organism-based, Muscle tissue; conditions: mouse, in vivo, 3 h
[16] = Biodistribution of the labeled compound in mice tumor 60 min after post-injection at adose 1.44 g; assay type: ADME, organism-based; conditions: mouse, in vivo, 1 h
[17] = Biodistribution of the labeled compound in mice liver 30 min after post-injection; assay type: ADME, organism-based; conditions: mouse, in vivo, 0.5 h
[18] = Biodistribution of the labeled compound in mice liver 60 min after post-injection; assay type: ADME, organism-based; conditions: mouse, in vivo, 1 h
[19] = Biodistribution of the labeled compound in mice spleen 180 min after post-injection; assay type: ADME, organism-based; conditions: mouse, in vivo, 3 h
[20] = Biodistribution of the labeled compound in mice stomach 30 min after post-injection; assay type: ADME, organism-based; conditions: mouse, in vivo, 0.5 h
[21] = Biodistribution of the labeled compound in mice kidney 180 min after post-injection; assay type: ADME, organism-based; conditions: mouse, in vivo, 3 h
Mus musculus [22] = organism: Mus musculus; assay: Tumor/muscle ratio of the label compound in mice 60 min after post injection; assay type: functional, Muscle tissue
[23] = Biodistribution of the labeled compound in mice heart 30 min after post-injection; assay type: ADME, organism-based; conditions: mouse, in vivo, 0.5 h
[24] = Biodistribution of the labeled compound in mice int+GB 180 min after post-injection; assay type: ADME, organism-based; conditions: mouse, in vivo, 3 h
Mus musculus [25] = organism: Mus musculus; assay: Tumor/blood ratio of the label compound in mice 180 min after post injection; assay type: functional
[26] = Biodistribution of the labeled compound in mice int+GB 60 min after post-injection; assay type: ADME, organism-based; conditions: mouse, in vivo, 1 h
Mus musculus [27] = organism: Mus musculus; assay: Tumor/muscle ratio of the label compound in mice 180 min after post injection; assay type: functional, Muscle tissue
[28] = Biodistribution of the labeled compound in mice blood 30 min after post-injection; assay type: ADME, organism-based; conditions: mouse, in vivo, 0.5 h
[29] = Biodistribution of the labeled compound in mice tumor 180 min after post-injection at adose 1.36 g; assay type: ADME, organism-based; conditions: mouse, in vivo, 3 h
[30] = Biodistribution of the labeled compound in mice lungs 180 min after post-injection; assay type: ADME, organism-based, Lung; conditions: mouse, in vivo, 3 h
[31] = Biodistribution of the labeled compound in mice blood 60 min after post-injection; assay type: ADME, organism-based; conditions: mouse, in vivo, 1 h
[32] = Biodistribution of the labeled compound in mice Muscle 30 min after post-injection; assay type: ADME, organism-based, Muscle tissue; conditions: mouse, in vivo, 0.5 h
[33] = Biodistribution of the labeled compound in mice muscle 60 min after post-injection; assay type: ADME, organism-based, Muscle tissue; conditions: mouse, in vivo, 1 h
[34] = Biodistribution of the labeled compound in mice lungs 60 min after post-injection; assay type: ADME, organism-based, Lung; conditions: mouse, in vivo, 1 h
Mus musculus [35] = organism: Mus musculus; assay: Tumor/blood ratio of the label compound in mice 60 min after post injection; assay type: functional
[36] = Biodistribution of the labeled compound in mice heart 60 min after post-injection; assay type: ADME, organism-based; conditions: mouse, in vivo, 1 h
[37] = Biodistribution of the labeled compound in mice bone 60 min after post-injection; assay type: ADME, organism-based, Bone element; conditions: mouse, in vivo, 1 h
[38] = Biodistribution of the labeled compound in mice bone 180 min after post-injection; assay type: ADME, organism-based, Bone element; conditions: mouse, in vivo, 3 h
[39] = Biodistribution of the labeled compound in mice stomach 180 min after post-injection; assay type: ADME, organism-based; conditions: mouse, in vivo, 3 h

Biodistribution [1]: 2.59 | Biodistribution [2]: 0.74 | Biodistribution [3]: 12.46 | Biodistribution [4]: 1.59 | Biodistribution [5]: 3.95 | Biodistribution [6]: 0.25 | Biodistribution [7]: 4.25 | Biodistribution [8]: 0.27 | Biodistribution [10]: 0.4 | Biodistribution [11]: 3.18 | Biodistribution [13]: 18.37 | Biodistribution [14]: 0.34 | Biodistribution [15]: 4.2 | Biodistribution [16]: 0.43 | Biodistribution [17]: 29.32 | Biodistribution [18]: 23.53 | Biodistribution [19]: 0.27 | Biodistribution [20]: 1.68 | Biodistribution [21]: 2.87 | Biodistribution [23]: 0.38 | Biodistribution [24]: 32.52 | Biodistribution [26]: 20.19 | Biodistribution [28]: 11.45 | Biodistribution [29]: 0.41 | Biodistribution [30]: 0.75 | Biodistribution [31]: 6.75 | Biodistribution [32]: 11.19 | Biodistribution [33]: 6.43 | Biodistribution [34]: 1.09 | Biodistribution [36]: 0.27 | Biodistribution [37]: 2.43 | Biodistribution [38]: 2.27 | Biodistribution [39]: 0.71
SMILES: Cc1ncc([N+](=O)[O-])n1CCOC(=S)[S-].[Na+] [METRONIDAZOLE XANTHATE]
Ratio (Mus musculus [9]): 0.2 | Ratio (Mus musculus [12]): 1.19 | Ratio (Mus musculus [22]): 2.15 | Ratio (Mus musculus [25]): 0.62 | Ratio (Mus musculus [27]): 3.35 | Ratio (Mus musculus [35]): 0.36
